# Reference: US8778882B2, “Agent for strengthening calcium containing tissue and use thereof” (Hayashibara Co., Ltd., priority 2002, dated 2014)
# Columns and labels:
# [1] = tested on: mouse pre-osteoblastic cell MC3T3-E1; assay: Alkaline phosphatase activity in mouse pre-osteoblastic cells; assay type: cell-based; settings: for activity at 20 µM: Mus musculus; for alkaline phosphatase activity in vitro: glycosides
# Method: To increase number of osteoblastic cells having calcium-deposition activity is important for increasing bone mass. […] The activity is at low level in pre-osteoblastic cells and at high level in osteoblastic cells differentiated form the pre-osteoblastic cells. […] Since final ethanol concentration in the medium is 0.2% (v/v), α-MEM medium containing 0.2% (v/v) ethanol was prepared as a negative control. The cells were inoculated for eight days as changing the medium therewith to fresh medium with or without each sample per three days. Alkaline phosphatase activity was measured using “Alkaline Phospha B-Test Wako” (commercialized by Wako Pure Chemical Industries, Osaka, Japan) according with Kajii et al (Archives of Oral Biology, Vol. 44, pp. 233-241, (1999)). Briefly, to the above described mouse pre-osteoblastic cells washed with 1 ml of 0.25 M sucrose solution three times after removing the medium were added 0.45 ml of 50 mM carbonate salt buffer (pH9.8) containing 1 mM magnesium chloride and 50 mM sucrose and 0.05 ml of 3.4 mM disodium p-nitrophenyl phosphate in due course. The mixture was incubated at 25° C. for five minutes and admixed with 1.5 ml of 0.6N sodium hydroxide as a reaction terminator. Absorbance 405 nm of p-nitrophenol generated by alkaline phosphatase in the resulting mixture was measured, and the obtained values were used as values as alkaline phosphatase activity. […] The experiment was performed by the method according to Experiment 1 except that culture day in the medium containing each sample was three, six or nine, and concentration of each sample was 5, 10 or 20 μM. […] As a negative control, mediums containing ethanol in the above concentration were prepared for calculating relative activity to the activity of each control.
# [2] = tested on: mouse pre-osteoblastic cell MC3T3-E1; assay: Calcium deposition amount by Calcium C Test Wako; assay type: cell-based; settings: for activity at 20 µM: Mus musculus, MC3T3-E1; for activity at 20 µM / Relative Calcium Deposition Amount (%): flavonoid comparison, Calcium C Test Wako, relative to 0.2% (v/v) ethanol negative control; for calcium deposition in vitro: glycosides
# Source text: Other flavonoid compounds than kaempferol or hesperetin were investigated where they have the same effect or not. Flavone (commercialized by Kanto Kagaku, Tokyo, Japan), apigenin (commercialized by Funakoshi, Co., Ltd., Tokyo, Japan), flavonol (commercialized by Tokyo Kasei Kogyo, Co., Ltd., Tokyo, Japan), quercetin (commercialized by Kanto Kagaku, Tokyo, Japan), kaempferol (commercialized by Funakoshi, Co., Ltd., Tokyo, Japan), rutin (commercialized by Kanto Kagaku, Tokyo, Japan), flavanone (commercialized by Kanto Kagaku, Tokyo, Japan), naringenin (commercialized by Ardrich Corporation), hesperetin (commercialized by Funakoshi, Co., Ltd., Tokyo, Japan), hesperidin (commercialized by Kanto Kagaku, Tokyo, Japan), chalcone (commercialized by Merk Corporation), fuloretin (commercialized by Sigma Corporation), catechin (commercialized by Sigma Corporation), ipriflavone (commercialized by Daito Corporation, Toyama, Japan), taxifolin (commercialized by Funakoshi, Co., Ltd., Tokyo, Japan), sulfuretin (commercialized by Funakoshi, Co., Ltd.; Tokyo, Japan), or cyanidin (commercialized by Funakoshi, Co., Ltd., Tokyo, Japan) was selected as test samples. Alkaline phosphatase activity was measured by the method of Experiment 1. Calcium deposition was measured by usual method using “Calcium C Test Wako” (commercialized by Wako Pure Chemical Industries, Osaka, Japan), briefly, cultured cells were washed with 1 ml of Dulbecco phosphate buffer saline three times after removing the medium. To the resultant was added 0.5 ml of 2N hydrochloric acid to resolve deposited calcium. To 5 μl of the resultant solution were added 0.5 ml of 0.88M monoethanolamine buffer (pH11) and 0.05 ml of 0.63 mM o-cresolphthalein complexone solution (binding to calcium ion to form chelate complex) containing 69 mM 8-quinolinol and mixed. Calcium amount per one hole of the plate was calculated by measuring absorbance 570 nm of the resultants and standardizing with a standard calcium solution. The judgement of alkaline phosphatase activity or calcium deposition amount of each sample was to calculate the relative activity or the relative calcium deposition amount to the negative control (only medium containing 0.2% (v/v) ethanol) and to compare each other.
# The enhancement of calcium deposition between kaempferol and ipripfavone were compared. Test samples and their adding manner were same as Experiment 4. Calcium deposition amount was measured by usual method using “Calcium C Test Wako” (commercialized by Wako Pure Chemical Industries, Osaka, Japan); briefly, cultured cells were washed with 1 ml of Dulbecco phosphate buffer saline three times after removing the medium. To the resultant was added 0.5 ml of 2N hydrochloric acid to resolve deposited calcium. To 5 μl of the resolving solution were added 0.5 ml of 0.88M monoethanolamine buffer (pH11) and 0.05 ml of 0.63 mM o-cresolphthalein complexone solution (binding to calcium ion to form chelate complex) containing 69 mM 8-quinolinol and mixed, Calcium amount per one hole of the plate was calculated by measuring absorbance 570 nm of the resultants and standardizing with a standard calcium solution.
# Kaempferol or hesperetin in combination with ipriflavone, or a kind of isoflavones, was investigated whether to enhance calcium deposition or not. Methods for preparing samples and culturing the cells were the same method described in Experiment 1 except culturing the cells for five days, Method for measuring calcium was the same method described in Experiment 3 and 5. Final ethanol concentration of the medium containing each sample was adjusted as same concentration.
# Rat Femur and Tibia = assay: Enhancing calcium deposition in rat femur and tibia; assay type: in vivo; settings: for Calcium Content Per One Dried Bone / Dried Bone Mass: rats fed sample in high sucrose feeding stuff for eight weeks; for calcium deposition in femur and tibia: rats, eight weeks feeding
# Method: The experiment was performed using six three-weeks-aged female Wister rats per one group. The rats were fed with high sucrose feeding stuff containing ingredients listed Table 11 (In the Table, each value means “weight %”.) and one part by weight of each test sample; hesperetin (commercialized by Funakoshi, Co., Ltd., Tokyo, Japan), quercetin (commercialized by Tokyo Kasei Kogyo, Co., Ltd., Tokyo, Japan), α-glycosyl hesperidin (product name “αG HESPERIDINE”, commercialized by Hayashibara Shoji Inc., Okayama, Japan), α-glycosyl rutin (product name “αG RUTIN P”, commercialized by Hayashibara Shoji Inc., Okayama, Japan), or ipriflavone (commercialized by Daito Corporation, Toyama, Japan) (positive control). As a negative control, rats fed with feedstuff containing one part by weight of sucrose replacing test sample were prepared. The rats were allowed to freely take water. The rats were killed after eight weeks, and then, their femurs and tibias were excised. Each femur or tibia dried at 100° C. for about six hours was measured by electric even balance for high precision analysis (product name “HA180M/12QM”, commercialized by A & D Co, Ltd., Tokyo, Japan), and then, each bone was placed into a crucible and burned in an incinerator at 950° C. for six hours. The cinerary resultant was resolved in hydrochloric solution and provided for measuring calcium amount by atomic absorption photometer. Calcium amount per one dried bone was calculated and compared each other.
# [3] = MC3T3-E1, 20 mM each compound (so in the source), eight days, relative to 0.2% (v/v) ethanol negative control
# [4] = MC3T3-E1, flavonoid comparison, method of Experiment 1, relative to 0.2% (v/v) ethanol negative control
# [5] = flavonoid comparison, method of Experiment 1, relative to 0.2% (v/v) ethanol negative control
# [6] = 192 h, MC3T3-E1, 20 mM each compound (so in the source), eight days, relative to 0.2% (v/v) ethanol negative control
compound,measurement,setting,value
tocopherol,Relative Alkaline Phosphatase Activity (%),[1]; [3],100%
Cc1cc(=O)oc2cc(O)ccc12 [4-Methylumbelliferone],Relative Alkaline Phosphatase Activity (%),[1]; [3],96%
O=c1cc(-c2ccccc2)oc2ccccc12 [Flavone],activity at 20 µM,[1]; [4],103%
same,activity at 20 µM,[2],158%
Oc1cc(O)c2cc(O)c(-c3ccc(O)c(O)c3)[o+]c2c1 [Cyanidin],Relative Alkaline Phosphatase Activity (%),[1]; [5],115%
same,Relative Calcium Deposition Amount (%),[2],216%
α-glycosyl hesperidin,alkaline phosphatase activity in vitro,[1],did not demonstrate
same,calcium deposition in vitro,[2],did not demonstrate
same,Calcium Content Per One Dried Bone,Rat Femur and Tibia; Femur,126.9 mg
same,Dried Bone Mass,Rat Femur and Tibia; Femur,0.454 g
same,Calcium Content Per One Dried Bone,Rat Femur and Tibia; Tibia,109.5 mg
same,Dried Bone Mass,Rat Femur and Tibia; Tibia,0.349 g
same,calcium deposition in femur and tibia,Rat Femur and Tibia,increase of calcium deposition content
O.Oc1cc(O)c2c(c1)O[C@H](c1ccc(O)c(O)c1)[C@@H](O)C2 [Catechin],Relative Alkaline Phosphatase Activity (%),[1]; [5],118%
same,Relative Calcium Deposition Amount (%),[2],247%
"CC1=C(/C=C/C(C)=C/C=C/C(C)=C/C=C/C=C(C)/C=C/C=C(C)/C=C/C2=C(C)CCCC2(C)C)C(C)(C)CCC1 [β-Carotene, β-carotene]",activity at 20 µM,[1]; [6],81%
O=c1c(O)c(-c2ccc(O)c(O)c2)oc2cc(O)cc(O)c12 [Quercetin],activity at 20 µM,[1]; [4],120%
same,activity at 20 µM,[2],118%
same,Calcium Content Per One Dried Bone,Rat Femur and Tibia; Femur,120.3 mg
same,Dried Bone Mass,Rat Femur and Tibia; Femur,0.456 g
same,Calcium Content Per One Dried Bone,Rat Femur and Tibia; Tibia,108.7 mg
same,Dried Bone Mass,Rat Femur and Tibia; Tibia,0.352 g
O=C1c2c(O)cc(O)cc2O[C@H](c2ccc(O)c(O)c2)[C@H]1O [Taxifolin],activity at 20 µM,[1]; [4],98%
same,activity at 20 µM,[2],234%
O=c1cc(-c2ccc(O)cc2)oc2cc(O)cc(O)c12 [Apigenin],activity at 20 µM,[1]; [4],128%
same,activity at 20 µM,[2],247%
"COc1cc(C=O)ccc1O [Vanillin, vanillin]",activity at 20 µM,[1]; [6],89%
COc1ccc([C@@H]2CC(=O)c3c(O)cc(O[C@@H]4O[C@H](CO[C@@H]5O[C@@H](C)[C@H](O)[C@@H](O)[C@H]5O)[C@@H](O)[C@H](O)[C@H]4O)cc3O2)cc1O [Hesperidin],"enhancement of alkaline phosphatase activity, daily course (FIG. 1)","[1]; 5, 10 or 20 μM, culture day three, six or nine, relative to ethanol control",remarkable enhancement of alkaline phosphatase activity at third day
same,Relative Alkaline Phosphatase Activity (%),[1]; [5],107%
same,alkaline phosphatase activity in vitro,[1],did not demonstrate
same,Relative Calcium Deposition Amount (%),[2],118%
same,calcium deposition in vitro,[2],did not demonstrate
same,calcium deposition in femur and tibia,Rat Femur and Tibia,increase of calcium deposition content
O=C1C[C@@H](c2ccc(O)cc2)Oc2cc(O)cc(O)c21 [Naringenin],activity at 20 µM,[1]; [4],110%
same,activity at 20 µM,[2],271%
C[C@@H]1O[C@@H](OC[C@H]2O[C@@H](Oc3c(-c4ccc(O)c(O)c4)oc4cc(O)cc(O)c4c3=O)[C@H](O)[C@@H](O)[C@@H]2O)[C@H](O)[C@H](O)[C@H]1O [Rutin],Relative Alkaline Phosphatase Activity (%),[1]; [5],109%
same,Relative Calcium Deposition Amount (%),[2],74%
O=C1CC(c2ccccc2)Oc2ccccc21 (stereo not drawn) [Flavanone],activity at 20 µM,[1]; [4],109%
same,activity at 20 µM,[2],311%
O=C1/C(=C/c2ccc(O)c(O)c2)Oc2cc(O)ccc21 [Sulfuretin],Relative Alkaline Phosphatase Activity (%),[1]; [5],126%
same,Relative Calcium Deposition Amount (%),[2],157%
CC1(C)[C@@H](O[C@H]2O[C@H](C(=O)O)[C@@H](O)[C@H](O)[C@H]2O[C@@H]2O[C@H](C(=O)O)[C@@H](O)[C@H](O)[C@H]2O)CC[C@]2(C)[C@H]3C(=O)C=C4[C@@H]5C[C@@](C)(C(=O)O)CC[C@]5(C)CC[C@@]4(C)[C@]3(C)CC[C@@H]12 [Glycyrrizinic Acid],Relative Alkaline Phosphatase Activity (%),[1]; [3],97%
O=c1c(O)c(-c2ccccc2)oc2ccccc12 [Flavonol],activity at 20 µM,[1]; [4],139%
same,activity at 20 µM,[2],295%
Phloretin,Relative Alkaline Phosphatase Activity (%),[1]; [5],109%
same,Relative Calcium Deposition Amount (%),[2],238%
"CC(C)Oc1ccc2c(=O)c(-c3ccccc3)coc2c1 [Ipriflavone, reference compound]",Relative Alkaline Phosphatase Activity (%),[1]; [5],114%
same,Relative Calcium Deposition Amount (%),[2],263%
same,Calcium Content Per One Dried Bone,Rat Femur and Tibia; Femur,120.0 mg
same,Dried Bone Mass,Rat Femur and Tibia; Femur,0.428 g
same,Calcium Content Per One Dried Bone,Rat Femur and Tibia; Tibia,106.0 mg
same,Dried Bone Mass,Rat Femur and Tibia; Tibia,0.338 g
α-glycosyl rutin,alkaline phosphatase activity in vitro,[1],did not demonstrate
same,calcium deposition in vitro,[2],did not demonstrate
same,Calcium Content Per One Dried Bone,Rat Femur and Tibia; Femur,119.9 mg
same,Dried Bone Mass,Rat Femur and Tibia; Femur,0.439 g
same,Calcium Content Per One Dried Bone,Rat Femur and Tibia; Tibia,107.7 mg
same,Dried Bone Mass,Rat Femur and Tibia; Tibia,0.343 g
same,calcium deposition in femur and tibia,Rat Femur and Tibia,increase of calcium deposition content
"CC1CCC(C(C)C)C(O)C1 (stereo not drawn) [Menthol, menthol]",activity at 20 µM,[1]; [6],95%
"Cn1c(=O)c2c(ncn2C)n(C)c1=O [Caffein, caffein]",activity at 20 µM,[1]; [6],100%
O=C(/C=C/c1ccccc1)c1ccccc1 [Chalcone],activity at 20 µM,[1]; [4],105%
same,activity at 20 µM,[2],104%
